Assay results: patent US20260274833A1 (NiKang Therapeutics, Inc., priority 2022, published 2026)

These molecules were tested against T1, CDK2 (Homo sapiens, UniProt P24941) (assay: Phospho-RB measurement in OVCAR3 cells (HTRF phospho-RB cellular kit)). Conditions: inhibition of RB phosphorylation at S807/811 (HTRF, TR-FRET ratio 665/620), 24 h compound treatment, 0.3 to 10,000 nM.
T1 construct: endogenous in cells; host or cells: OVCAR3 cells
Assay type: cell-based
Outline: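 IC50 came from a four-parameter logistic fit of the DMSO-normalized TR-FRET ratio (665/620 nm). That ratio reflects RB phosphorylation at S807/811, read with an HTRF antibody pair 4 h after adding lysate at room temperature.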

Structure (SMILES) | IC50 [µM]
CC(C)(C)c1nc(-c2cccc(NS(=O)(=O)N3Cc4cccnc4C3)c2F)c(-c2ccnc(NC3CCN(S(C)(=O)=O)CC3)n2)s1 [Example 95, N-(3-(2-(tert-butyl)-5-(2-((1-(methylsulfonyl)piperidin-4-yl)amino)-pyrimidin-4-yl)thiazol-4-yl)-2-fluoro-phenyl)-5,7-dihydro-6H-pyrrolo-[3,4-b]pyridine-6-sulfonamide] | 0.61
CN(C)S(=O)(=O)Nc1cccc(-c2nc(C(C)(C)C)sc2-c2ccnc(NC3CCN(S(=O)(=O)N4CCNCC4)CC3)n2)c1F [Example 96, N-(3-(2-(tert-butyl)-5-(2-((1-(piperazin-1-ylsulfonyl)piperidin-4-yl)amino)-pyrimidin-4-yl)thiazol-4-yl)-2-fluorophenyl) dimethylamine-sulfonamide] | 0.454
CC(C)(C)c1nc(-c2cccc(NS(=O)(=O)N3Cc4ccc(C#N)cc4C3)c2F)c(-c2ccnc(NC3CCN(S(C)(=O)=O)CC3)n2)s1 [Example 97, N-(3-(2-(tert-butyl)-5-(2-((1-(methylsulfonyl)piperidin-4-yl)amino)-pyrimidin-4-yl)thiazol-4-yl)-2-fluorophenyl)-5-cyanoisoindoline-2-sulfonamide] | 0.285
CC(C)(C)OC(=O)N1CCN(S(=O)(=O)Nc2cccc(-c3nc(C(C)(C)C)sc3-c3ccnc(NC4CCN(S(C)(=O)=O)CC4)n3)c2F)c2ccccc21 [Example 101, tert-butyl 4-(N-(3-(2-(tert-butyl)-5-(2-((1-(methylsulfonyl)piperidin-4-yl)amino)-pyrimidin-4-yl)thiazol-4-yl)-2-fluorophenyl)-sulfamoyl)-3,4-dihydroquinoxaline-1(2H)-carboxylate] | 1.83
CC(C)(C)c1nc(-c2cccc(NS(=O)(=O)N3CCNc4ccccc4C3)c2F)c(-c2ccnc(NC3CCN(S(C)(=O)=O)CC3)n2)s1 [Example 102, N-(3-(2-(tert-butyl)-5-(2-((1-(methylsulfonyl)piperidin-4-yl)amino)-pyrimidin-4-yl)thiazol-4-yl)-2-fluorophenyl)-1,2,3,5-tetrahydro-4H-benzo[e] [1,4]diazepine-4-sulfonamide] | 0.281
CC(C)(C)c1nc(-c2cccc(NS(=O)(=O)N3Cc4ccncc4C3)c2F)c(-c2ccnc(NC3CCN(S(C)(=O)=O)CC3)n2)s1 [Example 103, N-(3-(2-(tert-butyl)-5-(2-((1-(methylsulfonyl)piperidin-4-yl)amino)-pyrimidin-4-yl)thiazol-4-yl)-2 fluorophenyl)-1,3-dihydro-2H-pyrrolo[3,4-c] pyridine-2-sulfonamide] | 0.142
CC(C)(C)c1nc(-c2cccc(NS(=O)(=O)N3CCc4c(C#N)cccc43)c2F)c(-c2ccnc(NC3CCN(S(C)(=O)=O)CC3)n2)s1 [Example 104, N-(3-(2-(tert-butyl)-5-(2-((1-(methylsulfonyl)piperidin-4-yl)amino)-pyrimidin-4-yl)thiazol-4-yl)-2-fluorophenyl)-4-cyanoindoline-1-sulfonamide] | 0.082
CC1c2ccccc2CN1S(=O)(=O)Nc1cccc(-c2nc(C(C)(C)C)sc2-c2ccnc(NC3CCN(S(C)(=O)=O)CC3)n2)c1F (centres unmarked) [Example 109, N-(3-(2-(tert-butyl)-5-(2-((1-(methylsulfonyl)-piperidin-4-yl)amino)-pyrimidin-4-yl)thiazol-4-yl)-2-fluoro-phenyl)-1-methylisoindoline-2-sulfonamide] | 0.21
CC(C)(C)c1nc(-c2cccc(NS(=O)(=O)N3CCOc4ncccc4C3)c2F)c(-c2ccnc(NC3CCN(S(C)(=O)=O)CC3)n2)s1 [Example 110, N-(3-(2-(tert-butyl)-5-(2-((1-(methylsulfonyl)-piperidin-4-yl)amino)-pyrimidin-4-yl)thiazol-4-yl)-2-fluoro-phenyl)-2,3-dihydropyrido [3,2-f][1,4]-oxazepine-4 (5H)-sulfonamide] | 1.03

The next lines start with the values.

IC50 [µM] | Structure (SMILES)
5.94 | CC(C)(C)c1nc(-c2cccc(NS(=O)(=O)N3CCn4c(nnc4C(F)(F)F)C3)c2F)c(-c2ccnc(NC3CCN(S(C)(=O)=O)CC3)n2)s1 [Example 94, N-(3-(2-(tert-butyl)-5-(2-((1-(methylsulfonyl)-piperidin-4-yl)amino)-pyrimidin-4-yl)thiazol-4-yl)-2-fluoro-phenyl)-3-(trifluoromethyl)-5,6-dihydro-[1,2,4]triazolo [4,3-a]pyrazine-7(8H)-sulfonamide]
0.511 | CC(C)(C)c1nc(-c2cccc(NS(=O)(=O)N3CCOc4ccccc43)c2F)c(-c2ccnc(NC3CCN(S(C)(=O)=O)CC3)n2)s1 [Example 98, N-(3-(2-(tert-butyl)-5-(2-((1-(methylsulfonyl)piperidin-4-yl)amino)-pyrimidin-4-yl)thiazol-4-yl)-2-fluoro-phenyl)-2,3-dihydro-4H-benzo[b][1,4]-oxazine-4-sulfonamide]
0.202 | CN1CCN(S(=O)(=O)Nc2cccc(-c3nc(C(C)(C)C)sc3-c3ccnc(NC4CCN(S(C)(=O)=O)CC4)n3)c2F)c2ccccc21 [Example 99, N-(3-(2-(tert-butyl)-5-(2-((1-(methylsulfonyl)piperidin-4-yl)amino)-pyrimidin-4-yl)thiazol-4-yl)-2-fluoro-phenyl)-4-methyl-3,4-dihydro-quinoxaline-1(2H)-sulfonamide]
1.24 | CN(c1ccccc1)S(=O)(=O)Nc1cccc(-c2nc(C(C)(C)C)sc2-c2ccnc(NC3CCN(S(C)(=O)=O)CC3)n2)c1F [Example 100, N-(3-(2-(tert-butyl)-5-(2-((1-(methylsulfonyl)piperidin-4-yl)amino)-pyrimidin-4-yl)thiazol-4-yl)-2-fluorophenyl)(N-methyl-N-phenyl)-aminosulfonamide]
0.215 | CN(C)CCN(C)S(=O)(=O)N1CCC(Nc2nccc(-c3sc(C(C)(C)C)nc3-c3cccc(NS(=O)(=O)N4CCOc5ccccc5C4)c3F)n2)CC1 [Example 105, N-(3-(2-(tert-butyl)-5-(2-((1-(N-(2-(dimethyl-amino)ethyl)-N-methyl-sulfamoyl)piperidin-4-yl)amino)-pyrimidin-4-yl)thiazol-4-yl)-2-fluoro-phenyl)-2,3-dihydrobenzo [f][1,4]-oxazepine-4 (5H)-sulfonamide]
0.263 | CC(C)(C)c1nc(-c2cccc(NS(=O)(=O)N3CCNc4ccccc43)c2F)c(-c2ccnc(NC3CCN(S(C)(=O)=O)CC3)n2)s1 [Example 106, N-(3-(2-(tert-butyl)-5-(2-((1-(methylsulfonyl)piperidin-4-yl)amino)-pyrimidin-4-yl)thiazol-4-yl)-2-fluorophenyl)-3,4-dihydroquinoxaline-1(2H)-sulfonamide]
0.919 | CN(C1CCC1)S(=O)(=O)Nc1cccc(-c2nc(C(C)(C)C)sc2-c2ccnc(NC3CCN(S(=O)(=O)N4CCNCC4)CC3)n2)c1F [Example 107, N-(3-(2-(tert-butyl)-5-(2-((1-(piperazin-1-yl-sulfonyl)piperidin-4-yl)amino)-pyrimidin-4-yl)thiazol-4-yl)-2-fluoro-phenyl)(N-methyl-N-cyclo-butylamine)-sulfonamide]
2.07 | CN(C1CC1)S(=O)(=O)Nc1cccc(-c2nc(C(C)(C)C)sc2-c2ccnc(NC3CCN(S(=O)(=O)N4CCNCC4)CC3)n2)c1F [Example 108, N-(3-(2-(tert-butyl)-5-(2-((1-(piperazin-1-yl-sulfonyl)piperidin-4-yl)amino)-pyrimidin-4-yl)thiazol-4-yl)-2-fluoro-phenyl)(N-methyl-N-cyclopro-pylamine)-sulfonamide]
